For data set [1], the system named is C57BL/6J-APC Min/+ transgenic mice. Put plainly: Number and volume of intestinal polyps in APC Min/+ mice fed different diets for 10 weeks. Format: in vivo, mouse. The conditions noted are these: standard diet, s.c. pellet 1.5 mg 17β-estradiol, mean ± SD. The text has this: The C57BL/6J APC Min/+ transgenic mouse is an excellent animal model for FAP, because the mutated APC gene is homologous to the human one. Even in the most common form of CRC, called sporadic, 85% of cases show the somatic mutation of the APC tumour suppressor gene. Therefore, the APC mutated transgenic animal model is acknowledged as the most significant for the study of the pathogenetic mechanisms that characterise the adenomatous polyposis in the colon, both in FAP and sporadic form, and it is considered a validated animal model for the set up of nutritional and pharmacological interventions aimed at controlling the development of adenomas and at preventing their progression to CRC (Levy D B et al. Inactivation of both APC alleles in human and mouse tumors. Cancer Res 1994, 54: 5953-5958; Paulsen J E et al. Qualitative and quantitative relationship between dysplastic aberrant crypt foci and tumorigenesis in the Min/+ mouse colon). For this reason, in setting up the oral formulations object of the present invention, and in the evaluation of their safety and efficacy, the Inventors made use of the above mentioned C57BL/6J APC Min/+ transgenic mouse model. Hereafter are described the data showing the effect in C57BL/6J-APC Min/+ transgenic mice, orally fed silymarin added diets, containing soluble and insoluble fibres in different proportions with the purpose of highlighting the differentiative properties of the insoluble and indigestible fibre. […]
After 10 weeks of treatment the animals received an intraperitoneal injection of 0.75 mg of Bromodeoxyuridine (BrdU), equivalent to 30 mg/kg, to verify the migration of cells of the intestinal mucosa along the villus axis (from crypt at the bottom to the luminal tip). […] Two blinded observers measured the number and size of polyps. […]

Data set [2] is described as follows: Body weight, mortality, dietary intake and tolerability during 10 weeks of diet. The conditions noted are these: standard diet, s.c. pellet 1.5 mg 17β-estradiol, mean ± SD. On the procedure: Silymarin up to 200 mg/kg was added to each diet. The diets were orally administered for 10 weeks to 114 male C57BL/6J-APC Min/+ transgenic mice 5-6 weeks old. These mice have a mutation of the APC gene, and are prone to develop colon adenomatous polyposis. […] The statistical analysis has been performed by means of the One-way Analysis of Variance and the t-Student tests, considering statistically significant a p<0.05.
Every oral treatment lasted 10 weeks. The treatment scheme was designed to highlight the effects of the type of fibre, associated or not with increasing amounts of silymarin.

In data set [3] the test system is C57BL/6J-APC Min/+ transgenic mice. The experiment in a line: Histological grading of dysplasia of adenomatous formations. It counts as in vivo, mouse. The conditions noted are these: estradiol-treated animals. The text has this:
Histological preparations of randomly chosen intestine sections of every animal from the different treatment groups were observed by a blinded pathologist, who graded the dysplasia of the adenomatous formations present as minor, mild or severe.

Data set [4] relates to cells of the intestinal mucosa. The experiment in a line: BrdU cell migration along the villus axis (highest labeled cell). It counts as in vivo, mouse. To be noted: estrogen s.c., standard diet, 24 h after BrdU. On the procedure: After 10 weeks of treatment the animals received an intraperitoneal injection of 0.75 mg of Bromodeoxyuridine (BrdU), equivalent to 30 mg/kg, to verify the migration of cells of the intestinal mucosa along the villus axis (from crypt at the bottom to the luminal tip). This parameter allows to verify the normal esfoliative physiology of the intestinal mucosa, through which the mucosa keeps itself composed of healthy and vital cells. To this end, the animals were sacrificed 24, 48 and 72 hours after injection. Small intestine and colon were taken from every sacrificed animal. The small intestine was divided into three sections: proximal, medial and distal. The proximal tract was further divided in two portions that were subsequently scraped. One of the two was dipped in RNAlater® and stored at −20° C. and the other stored in liquid nitrogen. The two samples were used for Real Time PCR and Western Blotting, respectively. The medial and distal tracts, together with the colon, were used for the histological analysis. After a 3-hours pre-fixative treatment with formol, the intestinal tracts under examination were observed under an STM1 stereomicroscope, 3× magnification. Two blinded observers measured the number and size of polyps.

For data set [5], the system named is C57BL/6J-APC Min/+ transgenic mice. The conditions noted are these: female transgenic mice, administration after ovariectomy, Weyant et al.; cited from earlier work.

Turning to `C[C@]12CC[C@@H]3c4ccc(O)cc4CC[C@H]3[C@@H]1CC[C@@H]2O` [estrogen, 17β-estradiol], the “Number of intestinal polyps” value in data set [1] turned out to be 32.33 ± 12.06. The Polyps volume in data set [1] (listed as Estrogen) was 141.78 ± 79.1 mm^3; in data set [1] (listed as estradiol) it was “ineffective”. Moreover, the “Body weight at time of sacrifice” value in data set [2] turned out to be 24.9 ± 2.8 g. Moreover, the “Animals showing polyps with dysplasia classifiable as severe” value in data set [3] is 70%. The “24 hours migration of colonocytes from the crypt to the apex of the villus” value in data set [4] turned out to be 47.3 ± 10.5 %. In data set [5], the “Intestinal adenomas after ovariectomy” value is listed as “caused a reduction in intestinal adenomas”.

The values above are taken from patent US20110027230A1 (priority 2008, published 2011).
